# Reference: patent EP4516309A1, “CRHR1 AGONISTS FOR USE IN THE TREATMENT OF SOCIAL ANXIETY DISORDERS” (Consejo Superior de Investigaciones Cientificas, priority 2023, dated 2025)
# Columns and labels:
# [1] = tested on: GABAA and GABAB receptors; assay: Light-induced IPSCs in rdLS neurons after stimulation of CRH+ fibers from ILA expressing Channelrhodopsin; assay type: cell-based, mice; conditions: 2µM SR 95531 and 1µM CGP 55845 applied together; neurons held at +10 mV
# Experimental: The inventors prepared coronal brain slices from 8- to 12-week-old C57BL6/J mice. […] Brains were cut into 400 µm slices with a vibratome (VT1200S, Leica) in the same ice-cold dissection solution. Slices were then transferred to an incubation chamber containing the same ACSF solution. The chamber was kept at 34°C for 30 min and then at room temperature for at least 1 h before recording. All experiments were performed at room temperature. Slices were mounted in the recording chamber under a microscope. Recordings were acquired using the Multiclamp 700A amplifier (Molecular Device), data acquisition interface ITC-18 (Instrutech) and the Axograph software. The inventors targeted CA2 PNs based somatic location and size in both deep and superficial layer. […] The liquid junction potential was 1.2 mV and was left uncorrected. Inhibitory currents were recorded in voltage-clamp configuration at +10 mV. […] LS neurons from WT mice were also recorded. […] The inventors used the Axograph software for data acquisition, and Excel (Microsoft) and PRISM (Graphpad) for data analysis.
# CRHR1 [2] = molecular target: T1, CRHR1 (Mus musculus, UniProt P35347); assay: Inhibitory events in rdLS neurons before and after tetanic light stimulation of ILA CRH fibers, with or without antagonist; assay type: cell-based, mice; conditions: 300 nM antalarmin in the bath
# T1 sequence (P35347 24-415): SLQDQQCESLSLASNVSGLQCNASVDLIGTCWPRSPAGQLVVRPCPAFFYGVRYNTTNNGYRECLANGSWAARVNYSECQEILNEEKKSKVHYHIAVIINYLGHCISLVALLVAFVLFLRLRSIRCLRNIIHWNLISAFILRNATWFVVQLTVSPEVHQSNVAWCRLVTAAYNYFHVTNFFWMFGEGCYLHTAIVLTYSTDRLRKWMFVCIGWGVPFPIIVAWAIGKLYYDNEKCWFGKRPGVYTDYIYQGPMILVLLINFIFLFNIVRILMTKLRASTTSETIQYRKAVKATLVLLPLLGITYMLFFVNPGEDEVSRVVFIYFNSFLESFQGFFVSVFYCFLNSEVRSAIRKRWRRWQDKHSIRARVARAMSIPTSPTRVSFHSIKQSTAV
# From the text: The inventors prepared coronal brain slices from 8- to 12-week-old C57BL6/J mice. Animals were killed under isoflurane anesthesia by perfusion into the right ventricle of ice-cold solution containing the following (in mM): 125 NaCl, 2.5 KCI, 22.5 glucose, 25 NaHCOs, 1.25 NaH2PO4, 3 Na Pyruvate, 1 Ascorbic acid, 2 CaCl2 and 1 MgCl2). ACSF was saturated with 95% O2 and 5% CO2, pH 7.4. Brains were cut into 400 µm slices with a vibratome (VT1200S, Leica) in the same ice-cold dissection solution. Slices were then transferred to an incubation chamber containing the same ACSF solution. The chamber was kept at 34°C for 30 min and then at room temperature for at least 1 h before recording. All experiments were performed at room temperature. Slices were mounted in the recording chamber under a microscope. Recordings were acquired using the Multiclamp 700A amplifier (Molecular Device), data acquisition interface ITC-18 (Instrutech) and the Axograph software. […] Inhibitory currents were recorded in voltage-clamp configuration at +10 mV. […] LS neurons from WT mice were also recorded. […]
# The inventors expressed channel rhodopsin in ILA^CRH neurons and prepared rdLS slices (Fig. 15F). The inventors obtained whole-cell recordings of rdLS neurons and recorded spontaneous inhibitory events (sIPSC) before and after applying a tetanic light stimulation. […]
# CRHR1 [3] = assay: Social novelty preference test after cannula infusion in rdLS; assay type: in vivo, C57BL/6J wild-type mice; conditions: 2 µg of antalarmin in 0.6 µL of DMSO infused in rdLS
# From the text: The mouse scalp was removed and scored before a hole was drilled (AP +0.9, ML ±0). A cannula guide extending 2.4 mm below the pedestal (Plastics One #C315G 2-G11-SPC) was lowered slowly and kept in place using superglue. The skull was then covered with dental cement (GC FujiCEM 2) and dummy cannulas (Plastics One #C315DC-SPC) were inserted into the guides. The mice were returned to their home cages and left to recover for at least 1 week. For rdLS infusion, mice were placed under light isoflurane anesthesia (2%) and the dummy cannula was removed. A cannula (Plastics One #C315I-SPC) projecting 2.5 mm from the tip of the cannula guide was mounted. […]
# Social novelty preference test. […] Using automatic tracking of the test mice (ANY-Maze, Stoelting), the inventors quantified the time the test mice spent in the immediate area surrounding each cup - and therefore, interacting with each stimulus mice - during learning and recall. Using the interaction time from the recall trial, the inventors calculated a discrimination index for social novelty preference as the following: D! = (time with novel - time with familiar) / total interaction time. […] The inventors also calculated the total time spent interacting with stimulus mice during each trial in order to verify that the sociability drive was not affected. […]
# CRHR1 [4] = assay: Whole-cell patch-clamp recordings from rdLS CRHR1 neurons in acute LS slices; assay type: cell-based; conditions: 300 nM stressin-1, bath application; CRHR1-Cre;Ai9 mice; neurons clamped at -60 mV
# CRHR1 [5] = assay: Spontaneous IPSC recording from LS cells in acute slices before and after agonist application; assay type: cell-based, mice; conditions: 300 nM
# From the text: The inventors prepared coronal brain slices from 8- to 12-week-old C57BL6/J mice. Animals were killed under isoflurane anesthesia by perfusion into the right ventricle of ice-cold solution containing the following (in mM): 125 NaCl, 2.5 KCI, 22.5 glucose, 25 NaHCOs, 1.25 NaH2PO4, 3 Na Pyruvate, 1 Ascorbic acid, 2 CaCl2 and 1 MgCl2). ACSF was saturated with 95% O2 and 5% CO2, pH 7.4. Brains were cut into 400 µm slices with a vibratome (VT1200S, Leica) in the same ice-cold dissection solution. Slices were then transferred to an incubation chamber containing the same ACSF solution. The chamber was kept at 34°C for 30 min and then at room temperature for at least 1 h before recording. All experiments were performed at room temperature. Slices were mounted in the recording chamber under a microscope. Recordings were acquired using the Multiclamp 700A amplifier (Molecular Device), data acquisition interface ITC-18 (Instrutech) and the Axograph software. […] Whole-cell recordings were obtained from LS neurons in voltage-clamp mode at -70 mV patch pipette (3-5 MΩ) containing the following (in mM): 135 Cs-gluconate, 5 KCI, 0.2 EGTA-Na, 10 HEPES, 2 NaCl, 5 ATP, 0.4 GTP, 10 phosphocreatine, and 5 µM biocytin, pH 7.2 (280-290 mOsm). The liquid junction potential was 1.2 mV and was left uncorrected. Inhibitory currents were recorded in voltage-clamp configuration at +10 mV. The inventors recorded rdLS neurons in septal slices from CRH-Cre mice expressing channelrhodopsin and applied 2 µM SR 95531 (Tocris, # 1262) and 1 µM CGP 55845 (Tocris, #1248) to block GABAA and GABAB receptors, respectively while monitoring the light induced IPSCs in rdLS neurons. The inventors also applied a tetanic light stimulation (3 times 100 pulses of 1 ms at 100 Hz) with or without 300 nM antalarmin (Tocris, #2778) present in the bath. LS neurons from WT mice were also recorded. After 10 min of stable baseline recording, stressin-1 (300 nM, Tocris # 1608) was applied following a 1:1000 dilution from stock solution into the ACSF. The inventors used the Axograph software for data acquisition, and Excel (Microsoft) and PRISM (Graphpad) for data analysis.
# The inventors prepared acute LS slices from WT mice and recorded spontaneous inhibitory post-synaptic currents (IPSCs) from rdLS cells in whole-cell configuration before applying the CRHR1 agonist stressin-1 (300 nM, Fig. 15A-B). Stressin-1 application for 15 min decreased the frequency and integrated charge of spontaneous IPSCs (Fig. 15B-C and E). […] This effect was not seen when rLS neurons were recorded for 15 min without application of the agonist (Fig. 16 A1-A5).
# [6] = application for 15 min, rdLS cells, WT mice
molecule,measurement,setting,value
C[C@H](NC[C@H](O)CP(=O)(O)Cc1ccccc1)c1ccc(Cl)c(Cl)c1 [CGP 55845],light-induced IPSCs,[1],abolished
CCCCN(CC)c1nc(C)nc2c1c(C)c(C)n2-c1c(C)cc(C)cc1C [antalarmin],"decrease in inhibition (sIPSC frequency, amplitude, charge; elicited IPSC) following light stimulation",CRHR1 [2],blocked the disinhibition
same,preference for the novel mouse,CRHR1 [3]; recall trial,showed no novelty preference
same,Total exploration time during learning or recall,CRHR1 [3]; vs. DMSO,not different between groups
COc1ccc(-c2ccc(=N)n(CCCC(=O)O)n2)cc1 [SR 95531],light-induced IPSCs,[1],abolished
stressin-1,current in rdLSCRHR1 neurons,CRHR1 [4],induced an inward current
same,IPSCs of vLS neurons,"CRHR1 [5]; 15 min, vLS neurons in posterior LS slices",had no effect
same,IPSC amplitude,CRHR1 [5]; [6],trend toward a decrease
same,frequency of spontaneous IPSCs,CRHR1 [5]; [6],decreased
same,integrated charge of spontaneous IPSCs,CRHR1 [5]; [6],decreased
